Measured values as given in patent US20210317109A1, “TRICYCLIC SUBSTITUTED PIPERIDINE DIONE COMPOUND” (MEDSHINE DISCOVERY INC., priority 2018, published 2021).
Structures can show the parent of a compound that is named as a salt.

What was measured:
OCI-LY10 cell line = assay: Anti-proliferative effect in lymphoma cell line OCI-LY10 (CellTiter-Glo); format: cell-based; details: Homo sapiens, OCI-Ly10, 120 h; incubate with the compound for 5 days
Method: (§1) Experiment object: In this experiment, the inhibitory effects of the test compounds on cell proliferation in the diffuse large B-cell lymphoma cell lines OCI-LY10 and DOHH2, and the mantle cell lymphoma cell line Mino were tested.
(§2) The tumor cell lines were cultured in an incubator at 37° C. and 5% CO2 under the above-mentioned culture conditions. The cells were passaged regularly, and cells in the logarithmic growth phase were taken for planting.
(§3) (1). The cells were stained with trypan blue and live cells were counted.
(§4) (2). The cell concentration was adjusted to an appropriate concentration.
(§5) (3). 90 μL of cell suspension was added to each well of the culture plate as shown in the table above, and cell-free culture solution was added to the blank control well.
(4). The culture plates were incubated overnight at 37° C., 5% CO2, and 100% relative humidity in an incubator. […]
(§6) The following steps followed the instructions of Promega CellTiter-Glo Luminescence Cell Viability Detection Kit (Promega-G7573). […]
(§7) (8). The culture plates were left at room temperature for 10 minutes to stabilize the luminescence signal.
(§8) (9). The luminous signal was detected on the 2104 EnVision plate reader. […]

Mino cell line = assay: Anti-proliferative effect in mantle cell lymphoma cell line Mino (CellTiter-Glo); format: cell-based; details: Homo sapiens, 96 h, incubate with the compound for 4 days
Method: as §1, §2, §3, §4, §5
(§9) (4). The culture plates were incubated overnight at 37° C., 5% CO2, and 100% relative humidity in an incubator.
(§10) The mother liquor storage plate with a compound concentration of 400 times the working concentration of the compound was prepared: The compound was gradually diluted with DMSO from the highest concentration to the lowest concentration. The compound was freshly formulated when use every time.
(§11) (1). Formulation of a working solution with a compound concentration of […] the working concentration of the compound: 76 μL of cell culture solution was added to a 96-well plate with a V-shaped bottom, and 4 μL of the compound was pipetted from the mother liquor storage plate with a compound concentration of […] the working concentration of the compound to the cell culture solution of the 96-well plate. 4 μL of DMSO was added to the vehicle control and blank control. After adding the compound or DMSO, a multi-channel pipette was used for pipetting and mixing well. […]
as §6, §7, §8

[1] = Pharmacokinetic properties of test compound in mice (oral); format: in vivo, C57BL male mice; details: for oral plasma systemic exposures (AUC0-inf), in words / Area under the drug-time curve (0-inf) / Peak concentration / Time to peak: mice; for Area under the drug-time curve (0-inf) / Peak concentration / Time to peak: oral 10 mg/kg, plasma; for pharmacokinetic properties, in words: rodent mice
Description: In this study, C57BL male mice were selected as the test animals. A LC-MS/MS method was used to quantitatively determine the drug concentration in the plasma after oral administration of the test compound and the reference compound, to evaluate the pharmacokinetic profile of the test compound in mice.
C57Balb/c (C57) mice (male, 20-30 g, 7-10 weeks old, Beijing Vital River or Shanghai SLAC).
A clear solution or suspension of the test compound was administrated to C57 mice (fasted overnight) by oral gavage. Blood was collected from jugular vein at pre-dose and 0.5, 1, 2, 4, 6, 8, 24 hours post-dose, the collected blood samples were placed in an anticoagulant tube (Jiangsu Kangjian Medical Co., Ltd.) supplemented with EDTA-K2, and the mixture was vortexed and centrifuged at 13000 rpm for 10 minutes. The LC-MS/MS method was used to determine the plasma concentration of test compounds, and the relevant pharmacokinetic parameters were calculated using non-compartmental model linear logarithmic trapezoidal method by WinNonlinTM Version 6.3 (Pharsight, Mountain View, Calif.).

DOHH2 cell line = assay: Anti-proliferative effect in lymphoma cell line DOHH2 (CellTiter-Glo); format: cell-based; details: Homo sapiens, DOHH-2, 96 h; incubate with the compound for 4 days
Method: as §1, §2, §3, §4, §5, §9, §10, §11, §6, §7, §8

[2] = tested on: human lymphoma OCI-LY10 cells subcutaneous xenograft tumor
Method: Cells culture: Human lymphoma OCI-LY10 cells (National Cancer Institute) were cultured in a monolayer in vitro. The culture conditions were RPMI-1640 medium with 10% fetal bovine serum, 100 U/mL penicillin and […] streptomycin, 37° C., 5% CO2 incubator culture. Conventional digestion treatment with pancreatin-EDTA for passage was carried out twice a week. When the cell saturation was 80% to 90%, and the number reached the requirement, the cells were collected, counted and inoculated.
Animal: CB-17 SCID mouse, female, 6-8 weeks old, weighing 18-22 grams. Protocols:
0.2 mL (10×10^6 cells) of OCI-LY10 cells (with matrigel in a volume ratio of 1:1) were subcutaneously inoculated on the right back of each mouse. The grouping and administration were started when the average tumor volume reached about 139 mm^3. One dosing cycle was seven days, and the compound was administered once a day with an interval of 24 hours. The test compound was administered orally for a total of four cycles. The dose of the test compound WX002 was 60 mg/kg, the tumor volume was measured twice a week with a two-dimensional caliper, and the volume was measured in cubic millimeters, calculated by the following formula: V =0.5a×b^2, in which a and b were the long diameter and short diameter of the tumor, respectively. The anti-tumor efficacy was determined by dividing average increase of tumor volume of animals treated with the compound by that of untreated animals.

[3] = 60 mg/kg oral once a day, Day 27

Structure (SMILES)	IC50 (OCI-LY10 cell line)	IC50 (Mino cell line)	oral plasma systemic exposures (AUC0-inf), in words [1]	Area under the drug-time curve (0-inf) [1]	Peak concentration [1]	Time to peak [1]	pharmacokinetic properties, in words [1]	IC50 (DOHH2 cell line)	Tumor volume (Day 1) ([2]; 60 mg/kg oral once a day, Day 1 (start of administration))	TGI (Day 27) [2, 3]	Tumor volume (Day 27) [2, 3]	effect on the human lymphoma OCI-LY10 in vivo pharmacodynamic model, in words ([2]; mouse, in vivo)
O=C1CCC(c2coc3ccc4occc4c23)C(=O)N1 (centres unmarked) [WX004]	17 nM	7 nM	higher oral plasma systemic exposures	5.50 µM·h	6.54 µM	0.25 h	better pharmacokinetic properties	144 nM				
Cc1cc2c(ccc3occ(C4CCC(=O)NC4=O)c32)o1 (centres unmarked) [WX005]		10 nM						165 nM				
O=C1CCC(c2coc3ccc4cc(OCCN5CCOCC5)ccc4c23)C(=O)N1 (centres unmarked) [Hydrochloride of WX020]			higher oral plasma systemic exposures	18.38 µM·h	8.56 µM	0.25 h	better pharmacokinetic properties					
CCOC(=O)Cc1coc2ccc3cc(OCCN(C)C)ccc3c12 [Hydrochloride of WX008]			higher oral plasma systemic exposures	10.27 µM·h	4.88 µM	1.00 h	better pharmacokinetic properties					
O=C1CCC(c2coc3ccc4[nH]ccc4c23)C(=O)N1 (centres unmarked) [WX007]			higher oral plasma systemic exposures	7.79 µM·h	12.95 µM	0.08 h	better pharmacokinetic properties					
O=C1CCC(c2coc3ccc4ccccc4c23)C(=O)N1 (centres unmarked) [WX002]	26 nM	8 nM		2.49 µM·h	2.83 µM	0.50 h		97 nM	139 ± 10 mm^3	111%	35 ± 10 mm^3	significant tumor-shrinking effect
